This note sets out measurements from US20050080113A1, “Medicinal compositions” (priority 2001, published 2005).

The term melting point denotes the temperature, or range, at which the solid turns liquid.

In the case of `CCC(=O)Nc1cc(-c2sc(C3CCN(C)CC3)nc2-c2cccc(Cl)c2)ccn1.Cl.Cl`, the melting point fell in the range of 350 to 351 °C.

Compound `Cc1cccc(-c2nc(NC(=O)NCCCl)sc2-c2ccnc(C)c2)c1` had a melting point of 149 to 151 °C.

With `CC(=O)Nc1cc(-c2sc(C3CCNCC3)nc2-c2cccc(Cl)c2)ccn1.Cl.Cl`, the melting point is 193 to 195 °C.

In turn, `CCC(=O)Nc1cc(-c2sc(C3CCNCC3)nc2-c2cccc(Cl)c2)ccn1.Cl.Cl` registered a melting point of 202 to 203 °C.

Compound `CCc1nc(-c2cccc(Cl)c2)c(-c2ccnc(N[C@@H](C)c3ccccc3)c2)s1.Cl` showed a melting point of 165 to 166 °C.

`COc1ccc(-c2nc(N)sc2-c2ccncc2)cc1` [13-14, [4-(4-methoxyphenyl)-5-(4-pyridyl)-1,3-thiazol-2-yl]amine]: the melting point lay in the range of 282 to 284 °C.

In the case of `Nc1nc(-c2ccccc2)c(-c2ccncc2)s1` [13-15, [4-phenyl-5-(4-pyridyl)-1,3-thiazol-2-yl]amine], the melting point was in the range of 248 to 250 °C.

`Cc1cc(C)cc(-c2nc(N)sc2-c2ccncc2)c1` [23-133, [4 (3,5 dimethylphenyl)-5 (4 pyridyl)-1,3 thiazol-2 yl]amine] gave a melting point of 242 to 244 °C.

In turn, `CC(=O)Nc1nc(-c2ccc(C(C)(C)C)cc2)c(-c2ccncc2)s1` [23-137, N-[4 [4 (1,1 dimethylethyl)phenyl]-5 (4 pyridyl)-1,3 thiazol-2 yl]acetamide] came in with a melting point of 280 to 281 °C.

Regarding `CC(C)(C)c1ccc(-c2nc(N)sc2-c2ccncc2)cc1` [23-143, [4 [4 (1,1 dimethylethyl)phenyl]-5 (4 pyridyl)-1,3 thiazol-2-yl]amine], the melting point fell in the range of 254 to 257 °C.

With `CC(C)(C)c1ccc(-c2nc(NC(=O)c3ccccc3)sc2-c2ccncc2)cc1` [23-164, N-[4 [4 (1,1 dimethylethyl)phenyl]-5 (4 pyridyl)-1,3 thiazol-2 yl]benzamide], the melting point was in the range of 292 to 294 °C.

In turn, `CC(C)(C)c1ccc(-c2nc(NC(=O)c3cccnc3)sc2-c2ccncc2)cc1` [23-165, N-[4 [4 (1,1 dimethylethyl)phenyl]-5 (4 pyridyl)-1,3 thiazol-2 yl]nicotinamide] came in with a melting point of 326 to 328 °C.

`CC(C)(C)c1ccc(-c2nc(NC(=O)C3CCCC3)sc2-c2ccncc2)cc1` [23-168, N-[4 [4 (1,1 dimethylethyl)phenyl]-5 (4 pyridyl)-1,3 thiazol-2 yl]cyclopentanecarboxamide]: the melting point lay within 309 to 311 °C.

The compound `CCC(=O)Nc1nc(-c2cc(C)cc(C)c2)c(-c2ccncc2)s1` [23-194, N-[4 (3,5 dimethylphenyl)-5 (4 pyridyl)-1,3 thiazol-2-yl]propionamide] displayed a melting point of 291 to 293 °C.

Regarding `Cc1cc(C)cc(-c2nc(NC(=O)C(C)C)sc2-c2ccncc2)c1` [23-195, N-[4 (3,5 dimethylphenyl)-5 (4 pyridyl)-1,3 thiazol-2 yl]-2-methylpropionamide], the melting point lay within 270 to 272 °C.

For `Cc1cc(C)cc(-c2nc(NC(=O)Cc3ccccc3)sc2-c2ccncc2)c1` [23-196, N-[4 (3,5 dimethylphenyl)-5 (4 pyridyl)-1,3 thiazol-2 yl]-2-phenylacetamide], the melting point was in the range of 226 to 229 °C.

`Cc1cc(C)cc(-c2nc(NC(=O)c3ccccc3)sc2-c2ccncc2)c1` [23-197, N-[4 (3,5 dimethylphenyl)-5 (4 pyridyl)-1,3 thiazol-2-yl]benzamide]: the melting point lay in the range of 285 to 286 °C.

Consider `Cc1cc(C)cc(-c2nc(NC(=O)C3CCCC3)sc2-c2ccncc2)c1` [23-198, N-[4 (3,5 dimethylphenyl)-5 (4 pyridyl)-1,3 thiazol-2-yl]cyclopentanecarboxamide], for which the melting point lay in the range of 275 to 278 °C.

Take `Cc1cc(C)cc(-c2nc(NC(=O)c3cccnc3)sc2-c2ccncc2)c1` [23-199, N-[4 (3,5 dimethylphenyl)-5 (4 pyridyl)-1,3 thiazol-2-yl]nicotinamide]: the melting point is 267 to 270 °C.

`CCNC(=O)Nc1nc(-c2cc(C)cc(C)c2)c(-c2ccncc2)s1` [23-201, N-[4 (3,5 dimethylphenyl)-5 (4 pyridyl)-1,3 thiazol-2 yl]-N′-ethylurea] came in with a melting point of 202 to 203 °C.

`CCCNC(=O)Nc1nc(-c2cc(C)cc(C)c2)c(-c2ccncc2)s1` [23-202, N-[4 (3,5 dimethylphenyl)-5 (4 pyridyl)-1,3 thiazol-2 yl]-N′-propylurea] had a melting point of 128 to 130 °C.

In the case of `Cc1cc(C)cc(-c2nc(NC(=O)c3cnccn3)sc2-c2ccncc2)c1` [23-246, N-[4 (3,5 dimethylphenyl)-5 (4 pyridyl)-1,3 thiazol-2-yl]pyrazinecarboxamide], the melting point was in the range of 269 to 270 °C.

With `Cc1cccc(-c2nc(-c3ccc(F)cc3)sc2-c2ccnc(NC(=O)Cc3ccccc3)c2)c1` [D 14, N-[4-[2-(4-fluorophenyl)-4-(3-methylphenyl)-1,3-thiazol-5-yl]-2-pyridyl]phenylacetamide], the melting point lay within 187 to 190 °C.

`COc1ccc(-c2nc(C)sc2-c2ccnc(NC(=O)Cc3ccccc3)c2)cc1` [D 15-1, N-[4 [4 (4 methoxyphenyl)-2 methyl-1,3 thiazol-5 yl]-2 pyridyl]phenylacetamide] registered a melting point of 118 to 120 °C.

Compound `CCCCc1nc(-c2cccc(C)c2)c(-c2ccnc(NC(=O)Cc3ccccc3)c2)s1` [D 15-4, N-[4-[2-butyl-4-(3-methylphenyl)-1,3-thiazol-5-yl]-2-pyridyl]phenylacetamide] showed a melting point of 92 to 93 °C.

In turn, `CCCc1nc(-c2cccc(C)c2)c(-c2ccnc(NC(=O)CCc3ccccc3)c2)s1` [D 16-8, N-[4-[4-(3-methylphenyl)-2-propyl-1,3-thiazol-5-yl]-2-pyridyl]-3-phenylpropionamide] came in with a melting point of 103 to 104 °C.

Take `Cc1cccc(-c2nc(-c3ccc(F)cc3)sc2-c2ccnc(NC(=O)c3ccccc3)c2)c1` [D 16-11, N-[4-[2-(4-fluorophenyl)-4-(3-methylphenyl)-1,3-thiazol-5-yl]-2-pyridyl]benzamide]: the melting point was 126 to 128 °C.

As to `Cc1cccc(-c2nc(-c3ccc(F)cc3)sc2-c2ccnc(NC(=O)CCc3ccccc3)c2)c1` [D 16-12, N-[4-[2-(4-fluorophenyl)-4-(3-methylphenyl)-1,3-thiazol-5-yl]-2-pyridyl]-3-phenylpropionamide], the melting point lay within 169 to 171 °C.

As to `Cc1cccc(-c2nc(-c3ccccc3Cl)sc2-c2ccnc(NC(=O)c3ccccc3)c2)c1` [D 16-13, N-[4 [2 (2 chlorophenyl)-4 (3 methylphenyl)-1,3 thiazol-5 yl]-2 pyridyl]benzamide], the melting point lay within 138 to 140 °C.

As to `Cc1cccc(-c2nc(-c3ccccc3Cl)sc2-c2ccnc(NC(=O)CCc3ccccc3)c2)c1` [D 16-14, N-[4 [2 (2 chlorophenyl)-4 (3 methylphenyl)-1,3 thiazol-5 yl]-2 pyridyl]-3-phenylpropionamide], the melting point was in the range of 156 to 158 °C.

`CSc1ccc(-c2nc(-c3cccc(C)c3)c(-c3ccnc(NC(=O)c4ccccc4)c3)s2)cc1` [D 16-15, N-[4-[4-(3-methylphenyl)-2-(4-methylthiophenyl)-1,3-thiazol-5-yl]-2-pyridyl]benzamide] yielded a melting point of 180 to 182 °C.

`CSc1ccc(-c2nc(-c3cccc(C)c3)c(-c3ccnc(NC(=O)CCc4ccccc4)c3)s2)cc1` [D 16-16, N-[4-[4-(3-methylphenyl)-2-(4-methylthiophenyl)-1,3-thiazol-5-yl]-2-pyridyl]-3-phenylpropionamide] gave a melting point of 174 to 175 °C.

In the case of `CSc1ccc(-c2nc(-c3cccc(C)c3)c(-c3ccnc(NC(=O)c4cccs4)c3)s2)cc1` [D 16-17, N-[4 [4 (3 methylphenyl)-2 (4 methylthiophenyl)-1,3 thiazol-5 yl]-2 pyridyl]-2-thiophenecarboxamide], the melting point was in the range of 145 to 147 °C.

Compound `CSc1ccc(-c2nc(-c3cccc(C)c3)c(-c3ccnc(NC(=O)c4ccc5ccccc5c4)c3)s2)cc1` [D 16-18, N-[4 [4 (3 methylphenyl)-2 (4 methylthiophenyl)-1,3 thiazol-5 yl]-2 pyridyl]-2-naphthamide] gave a melting point of 184 to 186 °C.

Consider `COc1ccc(-c2nc(C)sc2-c2ccnc(NCc3ccccc3)c2)cc1` [D 19-1, N-benzyl-N-[4 [4 (4 methoxyphenyl)-2 methyl-1,3 thiazol-5 yl]-2 pyridyl]amine], for which the melting point lay within 132 to 133 °C.

Compound `Cc1cccc(-c2nc(-c3ccc(F)cc3)sc2-c2ccnc(NCc3ccccc3)c2)c1` [D 19-11, N-benzyl-N-[4 [2 (4-fluorophenyl)-4 (3 methylphenyl)-1,3 thiazol-5 yl]-2-pyridyl]amine] gave a melting point of 143 to 146 °C.

For `Cc1cccc(-c2nc(-c3ccc(F)cc3)sc2-c2ccnc(NCCc3ccccc3)c2)c1` [D 19-12, N-[4 [2 (4 fluorophenyl)-4 (3 methylphenyl)-1,3 thiazol-5 yl]-2 pyridyl]-N-(2-phenylethyl)amine], the melting point fell in the range of 97 to 98 °C.

With `Cc1cccc(-c2nc(-c3ccccc3Cl)sc2-c2ccnc(NCc3ccccc3)c2)c1` [D 19-14, N-benzyl-N-[4 [2 (2-chlorophenyl)-4 (3 methylphenyl)-1,3 thiazol-5 yl]-2-pyridyl]amine], the melting point was 84 to 88 °C.

The compound `Cc1cccc(-c2nc(-c3ccccc3Cl)sc2-c2ccnc(NCCc3ccccc3)c2)c1` [D 19-15, N-[4 [2 (2 chlorophenyl)-4 (3 methylphenyl)-1,3 thiazol-5 yl]-2 pyridyl]-N-(2-phenylethyl)amine] had a melting point of 113 to 114 °C.

As to `Cc1cccc(-c2nc(-c3ccccc3Cl)sc2-c2ccnc(NCCCc3ccccc3)c2)c1` [D 19-16, N-[4 [2 (2 chlorophenyl)-4 (3 methylphenyl)-1,3 thiazol-5 yl]-2 pyridyl]-N-(3-phenylpropyl)amine], the melting point lay in the range of 101 to 102 °C.

As to `CSc1ccc(-c2nc(-c3cccc(C)c3)c(-c3ccnc(NCc4ccccc4)c3)s2)cc1` [D 19-17, N-benzyl-N-[4-[4-(3-methylphenyl)-2-(4-methylthiophenyl)-1,3-thiazol-5-yl]-2-pyridyl]amine], the melting point fell in the range of 134 to 136 °C.
